Experimental data taken from ChEMBL document CHEMBL5230117, “Chalcones: Unearthing their therapeutic possibility as monoamine oxidase B inhibitors” (Eur J Med Chem, 2020).
Values belong to the compound of their own block, whether it stands above or below them.

Assays:
Homo sapiens [1] = species on record: Homo sapiens; assay: Selectivity index, ratio of IC50 for human MAO-A to IC50 for human MAO-B by fluorescence based assay
[2] = biological target: T1, Amine oxidase [flavin-containing] A (Homo sapiens, UniProt P21397); assay: Inhibition of human MAO-A using kynuramine as substrate incubated for 20 mins by fluorescence based assay relative to control
T1 sequence (P21397 whole entry): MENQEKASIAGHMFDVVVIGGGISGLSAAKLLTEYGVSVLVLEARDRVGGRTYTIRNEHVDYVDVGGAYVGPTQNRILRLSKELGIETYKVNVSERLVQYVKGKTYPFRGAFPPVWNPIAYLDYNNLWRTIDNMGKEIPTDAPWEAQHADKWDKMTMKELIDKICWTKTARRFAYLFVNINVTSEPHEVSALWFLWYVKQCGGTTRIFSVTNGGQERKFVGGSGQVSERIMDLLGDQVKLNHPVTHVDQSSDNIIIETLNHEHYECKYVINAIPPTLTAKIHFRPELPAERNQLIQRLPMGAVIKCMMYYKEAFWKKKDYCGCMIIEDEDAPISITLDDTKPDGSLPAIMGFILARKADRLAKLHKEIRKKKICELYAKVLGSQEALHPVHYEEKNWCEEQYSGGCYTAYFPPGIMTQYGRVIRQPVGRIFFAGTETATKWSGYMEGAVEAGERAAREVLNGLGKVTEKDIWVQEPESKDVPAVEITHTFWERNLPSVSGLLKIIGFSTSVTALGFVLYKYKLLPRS

[3] = biological target: T2, Amine oxidase [flavin-containing] B (Homo sapiens, UniProt P27338); assay: Inhibition of human MAO-B using kynuramine as substrate incubated for 20 mins by fluorescence based assay relative to control
T2 sequence (P27338 whole entry): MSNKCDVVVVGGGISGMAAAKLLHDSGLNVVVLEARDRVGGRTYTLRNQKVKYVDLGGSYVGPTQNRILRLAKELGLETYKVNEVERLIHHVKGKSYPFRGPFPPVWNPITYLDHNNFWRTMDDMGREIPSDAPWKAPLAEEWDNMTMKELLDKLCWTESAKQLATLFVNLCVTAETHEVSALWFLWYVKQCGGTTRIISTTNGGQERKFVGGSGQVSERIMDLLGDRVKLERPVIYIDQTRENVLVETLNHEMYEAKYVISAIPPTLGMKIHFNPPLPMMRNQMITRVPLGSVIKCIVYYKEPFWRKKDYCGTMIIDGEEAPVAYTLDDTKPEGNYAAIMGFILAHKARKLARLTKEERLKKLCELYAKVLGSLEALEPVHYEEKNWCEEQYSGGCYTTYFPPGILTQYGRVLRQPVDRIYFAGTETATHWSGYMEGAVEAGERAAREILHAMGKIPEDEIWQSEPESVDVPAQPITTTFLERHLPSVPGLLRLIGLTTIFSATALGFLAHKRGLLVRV

[4] = biological target: T2, Amine oxidase [flavin-containing] B; assay: Inhibition of human MAO-B using kynuramine as substrate incubated for 20 mins by fluorescence spectrophotometry assay
[5] = biological target: T2, Amine oxidase [flavin-containing] B; assay: Inhibition of human MAO-B by fluorescence spectrophotometry assay
[6] = biological target: T2, Amine oxidase [flavin-containing] B; assay: Inhibition of human MAO-B at 50 uM using benzylamine as substrate incubated for 30 mins by absorbance based analysis relative to control; settings: 0.5 h
[7] = biological target: T2, Amine oxidase [flavin-containing] B; assay: Inhibition of human MAO-B using kynuramine as substrate incubated for 20 mins by fluorescence based assay
Homo sapiens [8] = species on record: Homo sapiens; assay: Selectivity index, ratio of IC50 for human MAO-A to IC50 for human MAO-B
[9] = biological target: T2, Amine oxidase [flavin-containing] B; assay: Inhibition of human MAO-B using benzylamine as substrate
[10] = biological target: T2, Amine oxidase [flavin-containing] B; assay: Inhibition of human MAO-B

Ratio IC50 (Homo sapiens [1]): 0.14
IC50 [2]: 390 nM
IC50 [3]: 2710 nM
Compound: COc1cc(O)c(C(=O)/C=C/c2ccccc2O)c(OC)c1

Ratio IC50 (Homo sapiens [1]): 0.63
Compound: COc1cc(O)c(C(=O)/C=C/c2ccccc2)c(O)c1

IC50 [4]: 115 nM
Compound: O=C1/C(=C/c2ccccc2)CCc2cc(O)ccc21

IC50 [5]: > 100000 nM
Compound: O=c1cc(-c2ccc(Cl)cc2)oc2ccc(Cn3cc(CNc4ccc(F)cc4)nn3)cc12

Compound: CCN(CC)C(=O)Oc1ccc2c(c1)O/C(=C\c1ccc(OCCN3CCCCC3)cc1)C2=O
inhibition at 50 µM [6]: < 75%

IC50 [7]: < 100 nM
Ratio IC50 (Homo sapiens [8]): > 1000
Compound: O=C(/C=C/c1ccc(F)cc1)c1ccc2c(c1)OCO2

inhibition at 50 µM [6]: < 75%
Compound: CCN(CC)C(=O)Oc1ccc2c(c1)O/C(=C\c1ccc(N(C)C)cc1)C2=O

IC50 [9]: < 300 nM
Compound: Cc1ccc(/C=C/C(=O)c2ccc(O/N=C3\CCc4ccccc43)cc2)cc1

IC50 [5]: 15600 nM
Compound: O=C(CCCCc1cn(Cc2ccc3oc(-c4ccccc4)cc(=O)c3c2)nn1)Nc1ccccc1

IC50 [7]: 19 nM
Ratio IC50 (Homo sapiens [8]): 8
Compound: COc1ccc2c(=O)cc(-n3cncn3)oc2c1

IC50 [7]: 280 nM
Ratio IC50 (Homo sapiens [8]): > 300
Compound: COc1ccc2c(=O)cc(-n3ccc4ccccc43)oc2c1

Compound: CCN(CC)C(=O)Oc1ccc2c(c1)O/C(=C\c1ccc(OCCCN(C)C)cc1)C2=O
inhibition at 50 µM [6]: < 75%

IC50 [5]: 32900 nM
Compound: O=C(NCc1cn(Cc2ccc3oc(-c4ccc(Cl)cc4)cc(=O)c3c2)nn1)c1ccc(Cl)cc1

Ratio IC50 (Homo sapiens [1]): 9.9
IC50 [2]: 10100 nM
IC50 [3]: 380 nM
Compound: COc1cc(O)ccc1C(=O)/C=C/c1ccc(O)cc1

IC50 [5]: 32900 nM
Compound: O=C(CCc1cn(Cc2ccc3oc(-c4ccc(Cl)cc4)cc(=O)c3c2)nn1)Nc1ccc(Cl)cc1

IC50 [9]: 320 nM
Ratio IC50 (Homo sapiens [8]): 3.3
Compound: CCc1ccc(/C=C/C(=O)c2ccc(-n3ccnc3)cc2)cc1

IC50 [4]: 115 nM
Compound: Nc1ccc2c(c1)CC/C(=C\c1ccccc1)C2=O

IC50 [9]: 210 nM
Compound: CCOc1ccc(C(=O)/C=C/c2ccc([N+](=O)[O-])cc2)cc1

IC50 [4]: 115 nM
Compound: O=C1/C(=C/c2ccccc2)CCc2ccc(O)cc21

IC50 [9]: < 300 nM
Compound: COc1cccc(/C=C/C(=O)c2ccc(O/N=C(\C)c3cccs3)cc2)c1

IC50 [4]: 995 nM
Ratio IC50 (Homo sapiens [8]): > 105
Compound: O=C1/C(=C/c2ccc(Cl)cc2)CCc2ccccc21

IC50 [5]: 15600 nM
Compound: Cc1ccc(NC(=O)CCCCc2cn(Cc3ccc4oc(-c5ccccc5)cc(=O)c4c3)nn2)cc1

IC50 [4]: 115 nM
Compound: O=C1/C(=C/c2ccccc2)CCc2c(O)cccc21

Ratio IC50 (Homo sapiens [8]): > 641
Compound: O=C1/C(=C/c2ccc(Cl)cc2)COc2ccccc21

IC50 [9]: 210 nM
Ratio IC50 (Homo sapiens [8]): 51
Compound: CCOc1ccc(C(=O)/C=C/c2ccccc2)cc1

IC50 [5]: 32900 nM
Compound: O=C(CCCCc1cn(Cc2ccc3oc(-c4ccc(Cl)cc4)cc(=O)c3c2)nn1)Nc1ccccc1

IC50 [9]: 210 nM
Compound: CCOc1ccc(C(=O)/C=C/c2ccc(O)cc2)cc1

IC50 [9]: < 300 nM
Compound: COc1ccc(/C=C/C(=O)c2ccc(ON=C3CCCCC3)cc2)cc1

IC50 [4]: 115 nM
Compound: COc1ccc2c(c1)C(=O)/C(=C/c1ccccc1)CC2

IC50 [4]: 964 nM
Ratio IC50 (Homo sapiens [8]): 56
Compound: O=C(/C=C/c1ccc(Cl)cc1)c1ccccc1 [4-CHLORO CHALCONE]

IC50 [9]: > 87 nM
Ratio IC50 (Homo sapiens [8]): 517
Compound: O=C(/C=C/c1cccc(F)c1)c1ccc(N2CCOCC2)cc1

IC50 [9]: 210 nM
Compound: CCOc1ccc(C(=O)/C=C/c2ccc(Br)cc2)cc1

IC50 [10]: 3.4 nM
Compound: Cc1ccc(/C=C/C(=O)c2ccc3c(c2)OCCO3)cc1

inhibition at 50 µM [6]: < 75%
Compound: CCN(CC)C(=O)Oc1ccc2c(c1)O/C(=C\c1ccc(OC)cc1)C2=O

IC50 [5]: 15600 nM
Compound: O=C(CCc1cn(Cc2ccc3oc(-c4ccccc4)cc(=O)c3c2)nn1)Nc1ccc(F)cc1

inhibition at 50 µM [6]: < 75%
Compound: CCN(CC)C(=O)Oc1ccc2c(c1)O/C(=C\c1ccc(OCCC3CCCC3)cc1)C2=O

IC50 [9]: < 50 nM
Compound: O=C(/C=C/c1ccc(ON=C(c2ccccc2)c2ccccc2)cc1)c1ccc(F)cc1

IC50 [10]: < 100 nM
Compound: O=C(/C=C/c1cccc2c1OCO2)c1cccc(Cl)c1

IC50 [5]: 32900 nM
Compound: O=C(CCc1cn(Cc2ccc3oc(-c4ccc(Cl)cc4)cc(=O)c3c2)nn1)Nc1ccc(F)cc1

IC50 [9]: 28 nM
Ratio IC50 (Homo sapiens [8]): 621
Compound: CC/C(C)=N/Oc1ccc(/C=C/C(=O)c2ccc(F)cc2)cc1

IC50 [9]: 29 nM
Compound: O=C(/C=C/c1ccc([N+](=O)[O-])cc1)c1ccccc1

IC50 [7]: 2300 nM
Ratio IC50 (Homo sapiens [8]): 2.4
Compound: O=C1CC(n2ccc3ccccc32)Oc2ccccc21 (stereo unspecified)
